# Measured values: patent US11975009B2, “Use of zinc porphyrin as an antimicrobial” (ZNABLE LLC, priority 2022, dated 2024)
# Experiments:
# pqsA mutant biofilms = settings: mutant with little to no eDNA; cited from earlier work
# [1] = system: PsA biofilms and planktonic cells; settings: cited from earlier work
# PsA = assay: Activity of extant antibiotics together with ZnPor (II); settings: pre-treated by ZnPor (II)
SMILES,effect on pqsA mutant biofilms (pqsA mutant biofilms),toxicity to bacterial cells ([1]; absence of photoactivation),effect on antibiotic sensitivity of biofilm-associated cells ([1]; light activation not required),efficacy against PsA biofilms and planktonic cells ([1]; when photoactivated),effect on PsA biofilms ([1]; without light activation),killing of PsA (PsA)
"C[n+]1ccc(-c2c3nc(c(-c4cc[n+](C)cc4)c4ccc([nH]4)c(-c4cc[n+](C)cc4)c4nc(c(-c5cc[n+](C)cc5)c5ccc2[nH]5)C=C4)C=C3)cc1.Cc1ccc(S(=O)(=O)[O-])cc1.Cc1ccc(S(=O)(=O)[O-])cc1.Cc1ccc(S(=O)(=O)[O-])cc1.Cc1ccc(S(=O)(=O)[O-])cc1 [TMP, 5,10,15,20-tetrakis(1-methylpyridino)-21H,23H-porphine, tetra-p-tosylate salt]",no effect,little to no toxicity,"sensitive to tobramycin, gentamycin, and vancomycin",highly effective,disruption and detachment from the substrata,
"CN[C@H](CC(C)C)C(=O)N[C@H]1C(=O)N[C@@H](CC(N)=O)C(=O)N[C@H]2C(=O)N[C@H]3C(=O)N[C@H](C(=O)N[C@H](C(=O)O)c4cc(O)cc(O)c4-c4cc3ccc4O)[C@H](O)c3ccc(c(Cl)c3)Oc3cc2cc(c3O[C@@H]2O[C@H](CO)[C@@H](O)[C@H](O)[C@H]2O[C@H]2C[C@](C)(N)[C@H](O)[C@H](C)O2)Oc2ccc(cc2Cl)[C@H]1O [Vancomycin, reference compound]",,,,,,kills
